Experimental data reported in PMC9034380 (RSC Advances, 2021).

Tests used:
Format in all cases: cell-based
Hh signaling pathway = experiment: Gli-luciferase; settings: for IC50: read-out: Gli-luc reporter IC50
wild-type Smo = wild-type Smo (Mus musculus, UniProt P56726); experiment: Gli-Luc reporter assay in NIH3T3-Gli-Luc cells overexpressing wild-type Smo
Smo D477G = Smo D477G (Mus musculus, UniProt P56726, D477G); experiment: Gli-Luc reporter assay in NIH3T3-Gli-Luc cells overexpressing Smo D477G
Sequence of Smo D477G (P56726 33-793 D477G): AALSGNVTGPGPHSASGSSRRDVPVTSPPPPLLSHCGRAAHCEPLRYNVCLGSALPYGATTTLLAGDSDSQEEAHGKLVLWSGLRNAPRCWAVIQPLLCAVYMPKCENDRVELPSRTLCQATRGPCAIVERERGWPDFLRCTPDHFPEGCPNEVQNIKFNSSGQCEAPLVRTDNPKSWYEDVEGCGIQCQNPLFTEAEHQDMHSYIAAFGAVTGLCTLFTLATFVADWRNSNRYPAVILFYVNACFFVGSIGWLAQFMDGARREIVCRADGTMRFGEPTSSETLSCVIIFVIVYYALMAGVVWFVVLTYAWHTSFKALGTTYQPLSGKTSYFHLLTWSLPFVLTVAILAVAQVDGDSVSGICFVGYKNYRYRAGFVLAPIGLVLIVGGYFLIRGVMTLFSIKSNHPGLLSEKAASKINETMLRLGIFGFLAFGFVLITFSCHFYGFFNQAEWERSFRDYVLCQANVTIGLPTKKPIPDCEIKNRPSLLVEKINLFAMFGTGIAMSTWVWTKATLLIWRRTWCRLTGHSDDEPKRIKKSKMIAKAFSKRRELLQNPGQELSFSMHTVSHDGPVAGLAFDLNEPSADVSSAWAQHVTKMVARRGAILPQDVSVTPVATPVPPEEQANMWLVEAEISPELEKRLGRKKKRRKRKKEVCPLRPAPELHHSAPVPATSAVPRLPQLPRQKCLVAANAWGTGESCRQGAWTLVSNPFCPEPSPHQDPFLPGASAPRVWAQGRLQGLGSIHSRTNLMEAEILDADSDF

Daoy cells = experiment: Cell proliferation; settings: Homo sapiens, 48 h, read-out: cell viability
Smo = Smo (Homo sapiens, UniProt Q99835); experiment: Smo ciliary localization in NIH3T3 cells expressing Smo treated with Shh
Sequence of Smo (Q99835 28-787): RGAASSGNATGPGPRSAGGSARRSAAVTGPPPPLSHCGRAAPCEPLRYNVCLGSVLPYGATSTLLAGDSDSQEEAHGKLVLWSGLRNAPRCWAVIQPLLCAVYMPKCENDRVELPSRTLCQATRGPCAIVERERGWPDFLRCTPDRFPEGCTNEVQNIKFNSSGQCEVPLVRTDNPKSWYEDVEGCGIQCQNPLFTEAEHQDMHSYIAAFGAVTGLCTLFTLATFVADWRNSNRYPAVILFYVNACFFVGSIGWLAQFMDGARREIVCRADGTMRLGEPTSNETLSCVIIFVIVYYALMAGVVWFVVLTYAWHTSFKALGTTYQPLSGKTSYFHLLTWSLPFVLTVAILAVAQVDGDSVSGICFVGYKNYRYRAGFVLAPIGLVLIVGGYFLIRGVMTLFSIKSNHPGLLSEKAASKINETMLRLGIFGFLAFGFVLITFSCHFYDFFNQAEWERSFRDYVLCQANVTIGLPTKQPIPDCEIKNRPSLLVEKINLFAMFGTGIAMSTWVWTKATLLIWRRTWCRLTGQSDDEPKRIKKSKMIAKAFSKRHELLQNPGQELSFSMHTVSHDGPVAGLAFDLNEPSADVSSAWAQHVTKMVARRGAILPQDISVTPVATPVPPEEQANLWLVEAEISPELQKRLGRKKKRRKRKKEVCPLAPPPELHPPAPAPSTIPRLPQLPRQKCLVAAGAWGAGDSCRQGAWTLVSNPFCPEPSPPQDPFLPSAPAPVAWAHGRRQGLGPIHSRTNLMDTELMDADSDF

Sequence of wild-type Smo (P56726 33-793): as the sequence (P56726 33-793 D477G) above, with G445D counted along it

## CS(=O)(=O)c1ccc(C(=O)Nc2ccc(Cl)c(-c3ccccn3)c2)c(Cl)c1 [Compound 1, vismodegib, reference compound]
Hh signaling pathway
  IC50: 20 ± 10 nM

## COc1cc(NC(=O)c2cccnc2Cl)ccc1C(=O)Nc1ccc(Cl)c(-c2nc3ccccc3[nH]2)c1 [Compound 14]
Hh signaling pathway
  IC50: 50 ± 20 nM

## COc1cc(NC(=O)c2cccnc2)ccc1C(=O)Nc1ccc(Cl)c(-c2nc3ccccc3[nH]2)c1 [Compound 16]
Hh signaling pathway
  IC50: 80 ± 20 nM

## COc1cc(NC(=O)c2ccccc2Cl)ccc1C(=O)Nc1ccc(Cl)c(-c2ncc(-c3ccccc3)[nH]2)c1 [Compound 17]
Hh signaling pathway
  IC50: 120 ± 60 nM

## COc1cc(NC(=O)c2ccc(Cl)cc2Cl)ccc1C(=O)Nc1ccc(Cl)c(-c2ncc(-c3ccccc3)[nH]2)c1 [Compound 18]
Hh signaling pathway; Gli-luc IC50 ratio to compound 17
  loss of potency vs compound 17: 2.2 fold
Hh signaling pathway
  IC50: 260 ± 80 nM

## COc1cc(NC(=O)c2ccc(F)cc2)ccc1C(=O)Nc1ccc(Cl)c(-c2ncc(-c3ccccc3)[nH]2)c1 [Compound 20]
Hh signaling pathway
  IC50: 250 ± 40 nM

## COc1cc(NC(=O)c2cccnc2Cl)ccc1C(=O)Nc1ccc(Cl)c(-c2ncc(-c3ccccc3)[nH]2)c1 [Compound 21]
Hh signaling pathway; Gli-luc reporter, fold higher than compound 3
  potency compared to compound 3: 6 fold
Hh signaling pathway
  IC50: 30 ± 10 nM
wild-type Smo
  IC50: 39 nM
Smo D477G
  IC50: 96 nM
Smo D477G; NIH3T3-Gli-Luc cells overexpressing Smo D477G
  Hh pathway inhibition in mutant D477G: slightly decreased
Smo D477G; Smo D477G vs wild-type Smo
  shift in IC50, mutant D477G vs WT: 2.4 fold
Daoy cells
  viability at 1 µM: 72%
  viability at 10 µM: 43%
Smo
  Smo ciliary translocation: sharp drop

## COc1cc(NC(=O)c2ccc(Cl)nc2)ccc1C(=O)Nc1ccc(Cl)c(-c2ncc(-c3ccccc3)[nH]2)c1 [Compound 22]
Hh signaling pathway
  IC50: 150 ± 80 nM

## COc1cc(NC(=O)c2cccnc2)ccc1C(=O)Nc1ccc(Cl)c(-c2ncc(-c3ccccc3)[nH]2)c1 [Compound 23]
Hh signaling pathway
  IC50: 70 ± 20 nM
